Assay results taken from patent US10258701B2, “Labeled evans blue dye derivative for in vivo serum albumin labeling” (The United States of America, as represented by the …, priority 2015, dated 2019).

Legend:
[1] = Ex vivo biodistribution in Balb/C mice with absorbed doses extrapolated to adult human male (OLINDA/EXM); details: mouse
Description: For ex vivo biodistribution and dosimetry evaluation, each BALB/C mouse was injected with 1.85 MBq of ^68Ga-NEB. At different time points after tracer injection (5 min, 30 min, 1 h, 3 h and 6 h, n=5/time point), the mice were sacrificed for tissue and organ collection, including blood, muscle, bone, liver, kidneys, spleen, pancreas, stomach, intestine, heart and lung. The samples were wet weighed, and measured for radioactivity in a γ-counter (Wallac 1470-002, Perkin-Elmer). The results were presented as percentage injected dose per gram of tissue (% ID/g). For each mouse, the radioactivity of the tissue samples was calibrated against a known aliquot of the injected tracer and normalized to a mean body mass of each group. Values were expressed as mean±SD (n=5/group). Determination of organ doses for a reference human was made using the OLINDA/EXM program (Vanderbilt University, Nashville, Tenn.).
In order to estimate the safe dose for clinical use, an ex vivo biodistribution study was performed in normal Balb/C mice. Absorbed doses for major organs and whole body were then extrapolated to adult human male of a body weight of 73.7 Kg using OLINDA EXM software. The kidneys received the highest absorbed doses (mean absorbed dose, 0.104˜0.135 mSv/MBq), resulting from abundant blood supply and tracer excretion through the renal urinary tract. The mean effective dose of ^68Ga-NEB was 0.0151 to 0.0159 mSv/MBq. With an injected dose of 185 MBq (5 mCi), the patient would be exposed to an effective radiation dose of 2.94 mSv, which is much lower than the dose limit of 20 mSv for the second risk category defined by the 2007 International Commission on Radiological Protection.

[2] = Multiple time point whole-body PET in healthy volunteers (SUV); assay type: in vivo, human
Description: (§1) This clinical study was approved by the Institute Review Board of Peking Union Medical College Hospital, Chinese Academy of Medical Sciences and Peking Union Medical College. Three healthy volunteers (2 males and 1 female) were enrolled with written informed consent to validate the safety of ^68Ga-NEB. No fasting, hydration or other specific preparation was requested on the day of imaging. Any unusual or adverse clinical symptoms were recorded on the day of imaging and during the 2-week follow-up period.
All three healthy volunteers underwent whole-body PET acquisitions (Biograph mCT PET/CT system, Siemens) at multiple time points after tracer injection. After the whole-body low-dose CT scan (140 kV, 35 mA, pitch 1:1, layer 5 mm, layer spacing 3 mm, matrix 512×512, FOV 70 cm), 111-148 MBq (3-4 mCi) of ^68Ga-NEB was injected intravenously. The whole body (from the top of skull to the middle of femur) of each volunteer was covered by 7 bed positions. The acquisition duration was 40 sec/bed position for the 5 min, 10 min and 15 min time points, 2 min/bed position for the 30 min, 45 min, 60 min, 75 min and 90 min time points.
(§2) A Siemens MMWP workstation was used for post-processing. Visual analysis was used to determine the general biodistribution and the temporal and inter-subject stability. The volume of interest (VOI) of 12 normal organs/tissues and concerned lesions were drawn on the serial images. The radioactivity concentration and standardized uptake value (SUV) in the VOIs were obtained through the software. Organ dosimetry was calculated by using organ-level internal dose assessment software. All quantitative data were expressed as mean±standard deviation.
From 5 to 90 min, no dramatic distribution change was observed, confirming the in vivo stability and long blood pool retention of ^68Ga-NEB (FIG. 28). Increased bladder accumulation was observed over time.

[3] = human, in vivo
Source text: (§3) Dosimetry study confirmed the safety with acceptable absorbed doses by critical organs even with multiple injections for one patient.
as §2
The mean absorbed radiation doses based on multiple time point PET imaging of three volunteers were similar to those based on mouse biodistribution data. The major organs that received relatively high doses were kidneys, liver, spleen, and heart wall. The bladder wall also received high exposure due to renal excretion of the radioactivity (0.0683±0.0090 mSv/MBq). The whole body absorbed dose was 0.0151±0.0001 mSv/MBq with an effective dose of 0.0179±0.0003 mSv/MBq.

[4] = Safety observation in healthy volunteers and patients; assay type: in vivo, human
Source text: as §3, §1
Vessel branches in and out of major organs and limbs can also be clearly identified.

SMILES: Cc1cc(-c2ccc(NC(=O)CN3CCN4CCN(CC3)CC(=O)[O][68GaH][O]C(=O)C4)c(C)c2)ccc1N=Nc1ccc2c(S(=O)(=O)O)cc(S(=O)(=O)O)c(N)c2c1O [^68Ga-NEB]
- Absorbed Dose, Adrenals ([1]; BALB/c): 0.0137~0.0141 mSv/MBq
- Absorbed Dose, Breasts ([1]; BALB/c): 0.00881~0.01 mSv/MBq
- Absorbed Dose, Gallbladder Wall ([1]; BALB/c): 0.0147~0.0149 mSv/MBq
- Absorbed Dose, Heart Wall ([1]; BALB/c): 0.0329~0.0453 mSv/MBq
- Absorbed Dose, LLI Wall ([1]; BALB/c): 0.0104~0.0119 mSv/MBq
- Absorbed Dose, Liver ([1]; BALB/c): 0.0444~0.0575 mSv/MBq
- Absorbed Dose, Lungs ([1]; BALB/c): 0.0197~0.0236 mSv/MBq
- Absorbed Dose, Muscle ([1]; BALB/c): 0.00946~0.011 mSv/MBq
- Absorbed Dose, Osteogenic Cells ([1]; BALB/c): 0.0133~0.0153 mSv/MBq
- Absorbed Dose, Ovaries ([1]; BALB/c): 0.0108~0.0122 mSv/MBq
- Absorbed Dose, Pancreas ([1]; BALB/c): 0.0625~0.0821 mSv/MBq
- Absorbed Dose, Red Marrow ([1]; BALB/c): 0.00882~0.00973 mSv/MBq
- Absorbed Dose, Skin ([1]; BALB/c): 0.00804~0.00925 mSv/MBq
- Absorbed Dose, Small Intestine ([1]; BALB/c): 0.0114~0.0128 mSv/MBq
- Absorbed Dose, Spleen ([1]; BALB/c): 0.0263~0.0317 mSv/MBq
- Absorbed Dose, Stomach Wall ([1]; BALB/c): 0.0117~0.0127 mSv/MBq
- Absorbed Dose, Testes ([1]; BALB/c): 0.00896~0.0103 mSv/MBq
- Absorbed Dose, Thymus ([1]; BALB/c): 0.0101~0.0112 mSv/MBq
- Absorbed Dose, Thyroid ([1]; BALB/c): 0.00936~0.0107 mSv/MBq
- Absorbed Dose, Total Body ([1]; BALB/c): 0.0146~0.0146 mSv/MBq
- Absorbed Dose, ULI Wall ([1]; BALB/c): 0.0115~0.0128 mSv/MBq
- Absorbed Dose, Urinary Bladder Wall ([1]; BALB/c): 0.0102~0.0117 mSv/MBq
- Absorbed Dose, Uterus ([1]; BALB/c): 0.0108~0.0123 mSv/MBq
- Effective Dose Equivalent ([1]; BALB/c): 0.0251~0.0297 mSv/MBq
- effective radiation dose to the patient [1]: 2.94 mSv
- average standardized uptake value, Blood ([2]; 5 min after i.v.): 7.97 ± 0.15
- average standardized uptake value, Bone ([2]; 5 min after i.v.): 2.10 ± 0.26
- average standardized uptake value, Kidneys ([2]; 5 min after i.v.): 4.40 ± 0.26
- average standardized uptake value, Liver ([2]; 5 min after i.v.): 3.80 ± 0.44
- average standardized uptake value, Lung ([2]; 5 min after i.v.): 1.53 ± 0.15
- average standardized uptake value, Muscle ([2]; 5 min after i.v.): 0.53 ± 0.21
- average standardized uptake value, Pancreas ([2]; 5 min after i.v.): 2.13 ± 0.40
- average standardized uptake value, S. Intestine ([2]; 5 min after i.v.): 1.73 ± 0.25
- average standardized uptake value, Spleen ([2]; 5 min after i.v.): 4.10 ± 0.36
- average standardized uptake value, Stomach ([2]; 5 min after i.v.): 1.23 ± 0.15
- average standardized uptake value, Blood ([2]; 10 min after i.v.): 7.53 ± 0.25
- average standardized uptake value, Bone ([2]; 10 min after i.v.): 1.93 ± 0.12
- average standardized uptake value, Kidneys ([2]; 10 min after i.v.): 4.23 ± 0.49
- average standardized uptake value, Liver ([2]; 10 min after i.v.): 3.70 ± 0.61
- average standardized uptake value, Lung ([2]; 10 min after i.v.): 1.47 ± 0.29
- average standardized uptake value, Muscle ([2]; 10 min after i.v.): 0.60 ± 0.10
- average standardized uptake value, Pancreas ([2]; 10 min after i.v.): 2.03 ± 0.15
- average standardized uptake value, S. Intestine ([2]; 10 min after i.v.): 1.57 ± 0.12
- average standardized uptake value, Spleen ([2]; 10 min after i.v.): 4.07 ± 0.47
- average standardized uptake value, Stomach ([2]; 10 min after i.v.): 1.50 ± 0.20
- average standardized uptake value, Blood ([2]; 15 min after i.v.): 7.17 ± 0.35
- average standardized uptake value, Bone ([2]; 15 min after i.v.): 1.83 ± 0.15
- average standardized uptake value, Kidneys ([2]; 15 min after i.v.): 4.03 ± 0.50
- average standardized uptake value, Liver ([2]; 15 min after i.v.): 3.73 ± 0.59
- average standardized uptake value, Lung ([2]; 15 min after i.v.): 1.4 ± 0.17
- average standardized uptake value, Muscle ([2]; 15 min after i.v.): 0.60 ± 0.17
- average standardized uptake value, Pancreas ([2]; 15 min after i.v.): 1.90 ± 0.26
- average standardized uptake value, S. Intestine ([2]; 15 min after i.v.): 1.73 ± 0.12
- average standardized uptake value, Spleen ([2]; 15 min after i.v.): 4.00 ± 0.52
- average standardized uptake value, Stomach ([2]; 15 min after i.v.): 1.23 ± 0.12
- average standardized uptake value, Blood ([2]; 30 min after i.v.): 6.93 ± 0.21
- average standardized uptake value, Bone ([2]; 30 min after i.v.): 1.67 ± 0.15
- average standardized uptake value, Kidneys ([2]; 30 min after i.v.): 3.77 ± 0.29
- average standardized uptake value, Liver ([2]; 30 min after i.v.): 3.57 ± 0.46
- average standardized uptake value, Lung ([2]; 30 min after i.v.): 1.30 ± 0.17
- average standardized uptake value, Muscle ([2]; 30 min after i.v.): 0.57 ± 0.12
- average standardized uptake value, Pancreas ([2]; 30 min after i.v.): 1.67 ± 0.15
- average standardized uptake value, S. Intestine ([2]; 30 min after i.v.): 1.63 ± 0.15
- average standardized uptake value, Spleen ([2]; 30 min after i.v.): 3.90 ± 0.61
- average standardized uptake value, Stomach ([2]; 30 min after i.v.): 1.23 ± 0.06
- average standardized uptake value, Blood ([2]; 45 min after i.v.): 6.70 ± 0.26
- average standardized uptake value, Bone ([2]; 45 min after i.v.): 1.50 ± 0.20
- average standardized uptake value, Kidneys ([2]; 45 min after i.v.): 3.87 ± 0.32
- average standardized uptake value, Liver ([2]; 45 min after i.v.): 3.50 ± 0.52
- average standardized uptake value, Lung ([2]; 45 min after i.v.): 1.30 ± 0.20
- average standardized uptake value, Muscle ([2]; 45 min after i.v.): 0.53 ± 0.06
- average standardized uptake value, Pancreas ([2]; 45 min after i.v.): 1.67 ± 0.15
- average standardized uptake value, S. Intestine ([2]; 45 min after i.v.): 1.63 ± 0.06
- average standardized uptake value, Spleen ([2]; 45 min after i.v.): 3.77 ± 0.57
- average standardized uptake value, Stomach ([2]; 45 min after i.v.): 1.23 ± 0.06
- average standardized uptake value, Blood ([2]; 60 min after i.v.): 6.20 ± 0.17
- average standardized uptake value, Bone ([2]; 60 min after i.v.): 1.37 ± 0.06
- average standardized uptake value, Kidneys ([2]; 60 min after i.v.): 3.60 ± 0.10
- average standardized uptake value, Liver ([2]; 60 min after i.v.): 3.47 ± 0.47
- average standardized uptake value, Lung ([2]; 60 min after i.v.): 1.23 ± 0.06
- average standardized uptake value, Muscle ([2]; 60 min after i.v.): 0.50 ± 0.00
- average standardized uptake value, Pancreas ([2]; 60 min after i.v.): 1.43 ± 0.15
- average standardized uptake value, S. Intestine ([2]; 60 min after i.v.): 1.47 ± 0.15
- average standardized uptake value, Spleen ([2]; 60 min after i.v.): 3.73 ± 0.42
- average standardized uptake value, Stomach ([2]; 60 min after i.v.): 1.10 ± 0.00
- average standardized uptake value, Blood ([2]; 75 min after i.v.): 6.03 ± 0.12
- average standardized uptake value, Bone ([2]; 75 min after i.v.): 1.27 ± 0.12
- average standardized uptake value, Kidneys ([2]; 75 min after i.v.): 3.43 ± 0.15
- average standardized uptake value, Liver ([2]; 75 min after i.v.): 3.43 ± 0.49
- average standardized uptake value, Lung ([2]; 75 min after i.v.): 1.10 ± 0.17
- average standardized uptake value, Muscle ([2]; 75 min after i.v.): 0.47 ± 0.06
- average standardized uptake value, Pancreas ([2]; 75 min after i.v.): 1.37 ± 0.21
- average standardized uptake value, S. Intestine ([2]; 75 min after i.v.): 1.33 ± 0.21
- average standardized uptake value, Spleen ([2]; 75 min after i.v.): 4.93 ± 2.10
- average standardized uptake value, Stomach ([2]; 75 min after i.v.): 1.07 ± 0.12
- average standardized uptake value, Blood ([2]; 90 min after i.v.): 5.97 ± 0.15
- average standardized uptake value, Bone ([2]; 90 min after i.v.): 1.23 ± 0.15
- average standardized uptake value, Kidneys ([2]; 90 min after i.v.): 3.30 ± 0.20
- average standardized uptake value, Liver ([2]; 90 min after i.v.): 3.33 ± 0.58
- average standardized uptake value, Lung ([2]; 90 min after i.v.): 1.07 ± 0.12
- average standardized uptake value, Muscle ([2]; 90 min after i.v.): 0.77 ± 0.64
- average standardized uptake value, Pancreas ([2]; 90 min after i.v.): 1.37 ± 0.31
- average standardized uptake value, S. Intestine ([2]; 90 min after i.v.): 1.17 ± 0.32
- average standardized uptake value, Spleen ([2]; 90 min after i.v.): 3.57 ± 0.55
- average standardized uptake value, Stomach ([2]; 90 min after i.v.): 1.03 ± 0.15
- crossing of the blood-brain barrier ([2]; PET, normal brain tissue negligible accumulation): does not cross the blood-brain barrier
- effective dose [3]: 0.0179±0.0003 mSv/MBq
- mean absorbed radiation dose, bladder wall [3]: 0.0683±0.0090 mSv/MBq
- radiation dose a patient would be exposed to [3]: 2.65 mSv
- whole body absorbed dose [3]: 0.0151±0.0001 mSv/MBq
- reported discomfort, adverse clinical events, toxicity, allergies ([4]; all healthy volunteers and patients): no discomfort or adverse clinical events, no elicited toxicity, and no allergies
- adverse symptoms during the entire procedure and 2 weeks follow-up ([4]; healthy volunteers, mean injected dose 3.77±0.28 mCi): no adverse symptoms were noticed and/or reported
